“And” between values parts separate entries of the source, which are not always exact repeats. Equal entries are not always repeated. Peptide text beside a SMILES is read from it.
What was measured:
LimF [1] = assay: LimF prenylation of His monomers and His-containing dipeptides; assay type: biochemical, Limnothrix sp. CACIAM 69d; settings: prenyl group donor GPP; 100 μM LimF, 20 hours
Experimental: The optimization conditions were as follows: 1 mM GPP, 40 mM MgCl2, 1 mM dithiothreitol (DTT), pH 7.2, and reaction temperature 25° C. The reaction conditions described above were used below except where otherwise stated.
• A reaction was performed for 20 hours with 100 μM LimF.
Furthermore, when a prenylation reaction facilitated by 20 μM LimF was applied not only to Ac-AH-NH2, but also to various His-containing dipeptides, it became clear that a His prenylation reaction facilitated by LimF progressed for various His-containing dipeptides (FIG. 6).

LimF [2] = assay: FIT-LimF system: one-pot in vitro expression and prenylation of teMPs; assay type: biochemical, Limnothrix sp. CACIAM 69d; settings: 16 hours; for Modification Efficiency % (Tyr prenylation): FIT-LimF system, 20 μM LimF
Source text: First, teMP (teLimE2) mimicking the sequence of bcLimE2 was designed and expressed by genetic code reprogramming using customized cell-free translation, and the so-called flexible in vitro translation (FIT) system (Goto, Y, Katoh, T. & Suga, Flexizymes for genetic code reprogramming. Nat. Protoc., 6, 779-790 (2011)). Specifically, the AUG start codon was reprogrammed with N-chloroacetyl-D-phenylalanine (^ClAcD-F), a linear precursor having a chloroacetyl group (ClAc group) at the N-terminal was expressed, and a thioether bond was formed by a spontaneous ring-closing SN2 reaction with a downstream Cys thiol (FIG. 7a). Note that the FIT system had the composition described below.
teLimE2 expressed in vitro was incubated for 16 hours at 25° C. in the presence of 100 μM LimF and analyzed by LC-MS. […] The in vitro translation system conjugated with LimF will be referred to hereinafter as the FIT-LimF system.
38 types of teLimE2 variants in which the His-1 and His+1 positions were substituted with 19 types of proteinogenic amino acid other than Cys were designed and then expressed and modified in the FIT-LimF system. The reaction results were analyzed by LC-MS. In the present experiment, the prenylation process was performed under intentionally poor modification efficiency conditions by using a low LimF concentration (10 μM). This allowed for more accurate investigation of the influence of His−1 and His+1 amino acids.
The following series of experiments examined whether teMPs of various ring sizes were tolerated by LimF. Thirteen teMP variants with different ring sizes (4 to 18 residues) and a preferred local sequence motif (Ser-His-Ala/Cys) were designed.
Next, it was shown that LimF can modify teMPs having a variety of random sequences. Five teMPs composed of random sequences were expressed and modified using the FIT-LimF system (LimF concentration: 10 μM) (FIG. 7e). […]
Target sequence in this assay (as listed by the source): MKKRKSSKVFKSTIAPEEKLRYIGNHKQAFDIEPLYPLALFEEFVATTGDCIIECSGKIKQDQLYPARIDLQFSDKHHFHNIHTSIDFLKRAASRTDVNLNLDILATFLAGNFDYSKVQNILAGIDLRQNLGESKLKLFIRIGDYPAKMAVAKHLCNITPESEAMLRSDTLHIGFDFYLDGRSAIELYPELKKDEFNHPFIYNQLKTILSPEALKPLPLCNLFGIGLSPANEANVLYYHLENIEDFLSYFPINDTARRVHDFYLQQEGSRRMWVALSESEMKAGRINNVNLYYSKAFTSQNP

GLP1R = molecular target: T1, GLP1R (Homo sapiens, UniProt P43220); assay: cAMP production activation test (cAMP Hunter eXpress GLP1R CHO-K1 GPCR assay kit); assay type: cell-based; settings: GLP1R CHO-K1 cells
T1 construct: host or cells: CHO-K1
T1 sequence (P43220 24-463): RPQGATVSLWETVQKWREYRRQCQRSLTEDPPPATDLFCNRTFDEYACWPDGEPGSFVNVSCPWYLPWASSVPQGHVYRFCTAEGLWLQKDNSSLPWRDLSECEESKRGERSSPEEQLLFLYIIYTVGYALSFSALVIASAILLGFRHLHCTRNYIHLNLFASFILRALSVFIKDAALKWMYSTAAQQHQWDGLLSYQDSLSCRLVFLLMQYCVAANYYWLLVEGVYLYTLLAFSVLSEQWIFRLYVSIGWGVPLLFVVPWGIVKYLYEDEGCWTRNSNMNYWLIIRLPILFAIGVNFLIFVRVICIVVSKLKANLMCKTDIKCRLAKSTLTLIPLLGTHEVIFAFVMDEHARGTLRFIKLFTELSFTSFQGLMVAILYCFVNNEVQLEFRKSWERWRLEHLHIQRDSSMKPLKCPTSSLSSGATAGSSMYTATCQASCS
Experimental: The concentration range of the used peptides was from 0.33 μM to 20 nM.

FtmPT2 = molecular target: T2, FtmPT2 (Aspergillus fumigatus, UniProt Q4WAX1); settings: Aromatic C5 N-prenylation; cited from earlier work
T2 sequence (Q4WAX1 1-427): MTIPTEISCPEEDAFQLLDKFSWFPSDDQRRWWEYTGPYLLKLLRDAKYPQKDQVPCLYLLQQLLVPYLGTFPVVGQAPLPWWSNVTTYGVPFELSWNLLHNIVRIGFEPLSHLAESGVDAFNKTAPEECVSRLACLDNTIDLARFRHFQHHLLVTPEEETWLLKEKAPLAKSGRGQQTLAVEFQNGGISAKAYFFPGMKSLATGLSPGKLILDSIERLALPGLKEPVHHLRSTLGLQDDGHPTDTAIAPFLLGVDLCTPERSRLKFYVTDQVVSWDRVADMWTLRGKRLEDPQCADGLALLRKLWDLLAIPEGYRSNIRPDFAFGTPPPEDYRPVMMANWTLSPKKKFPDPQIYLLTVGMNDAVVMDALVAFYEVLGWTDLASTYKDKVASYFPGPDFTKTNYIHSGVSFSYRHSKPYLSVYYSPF

PagF = settings: Tyr C5 O-prenylation; cited from earlier work
LimF [3] = assay: Initial evaluation of LimF with estimated substrates bcLimE1-3 (LC-MS); assay type: biochemical, Limnothrix sp. CACIAM 69d; settings: for geranylation by LimF (LC-MS): 20 μM LimF, 20 μM peptide, 2 mM geranyl pyrophosphate, 20 mM MgCl2, pH 7.5, 37° C., 12 hours
Experimental: In order to examine the enzymatic activity of LimF, LimF was heterologously-expressed in Escherichia coli using the method described above and incubated with chemically synthesized bcLimE1, bcLimE2 or bcLimE3 in the presence of MgCl2 and a prenyl group donor (geranyl pyrophosphate (GPP)). The reaction conditions were as described below.
First, the same experiment as described above was performed using farnesyl pyrophosphate instead of geranyl pyrophosphate as a prenyl group donor. As a result, a trace amount of farnesylated bcLimE2 was generated, although at a lower efficiency than when GPP was used.
The initial evaluation of LimF using estimated substrates (bcLimE1, bcLimE2, and bcLimE3) was performed as follows. An enzymatic reaction was performed for 12 hours at 37° C. under the conditions of LimF (20 μM), peptide substrate (20 μM), prenyl group donor (geranyl pyrophosphate or farnesyl pyrophosphate) (2 mM), HEPES (50 mM, pH 7.5), MgCl2 (20 mM), and DTT (1 mM). After reacting the substrates bcLimE1, bcLimE2, and bcLimE3 for 12 hours at 37° C., respectively, nine times the amount of 1% TFA was added and centrifuged at 4° C. (15300×g, 10 minutes), and a supernatant was recovered. 10 μL of the obtained supernatant was subjected to LC-MS analysis.

AcyF = settings: Trp C5 N-prenylation; cited from earlier work
Vib-PT = settings: Aromatic C5 O-prenylation; cited from earlier work
LynF = settings: Tyr C5 O-prenylation; cited from earlier work
LimF [4] = assay: Steady-state kinetics of prenylation facilitated by LimF (wild type); assay type: biochemical, Limnothrix sp. CACIAM 69d; settings: His-prenylation (C10), 1 mM GPP, 40 mM MgCl2, pH 7.2, 25° C.
Experimental: Under optimal conditions, the steady-state kinetic parameters of the prenylation reaction of bcLimE2 facilitated by LimF were measured by the methods described below.
The concentration dependence of GPP and MgCl2 in bcLimE2 prenylation reactions facilitated by LimF was measured in reaction systems containing 1 μM LimF, 1 mM or a suitably modified concentration of GPP, 50 mM HEPES pH 7.2, 0.4 mM substrate, 1 mM DTT, and 40 mM or a suitably modified concentration of MgCl2. A reaction solution containing components other than GPP was prepared and preheated to 25° C., and the reaction was then started by adding GPP. After incubating at 25° C., the reaction was stopped at each point and analyzed by LC-MS. Next, the initial rate was calculated as the slope of increase in the amount of prenylation product produced in the linear region. Three separate reactions were carried out under each condition and the mean and standard deviation of the results were used for the analysis.
For GPP concentration dependence and peptide substrate concentration dependence, the kinetic parameters were estimated by fitting the initial rate and GPP substrate concentration or peptide substrate concentration to the Michaelis-Menten model in Graphpad Prism 8.4.2 (GraphPad Prism Software Inc., San Diego, California) software.
Kinetic parameters of the His-prenylation reaction facilitated by LimF were determined based on reactions under optimal conditions using substrates of different concentrations. For the Tyr-prenylation described below, the kinetic parameters were measured under the same conditions except that LimF was set to 5 μM and the reaction temperature was set to 16° C. In order to estimate the kinetic parameters, the initial rate and substrate concentration were fitted to the Michaelis-Menten model in Graphpad Prism 8.4.2 software.
In order to further evaluate the two different prenylation modes by LimF, two teMPs (teR6-H5A/Y7H and teR6-H5A) that undergo efficient His-prenylation and Tyr-prenylation, respectively, were designed and chemically synthesized. Kinetic analysis was carried out according to the above method using these peptides.

N[C@@H](Cc1c[nH]cn1)C(=O)O [Free His, H-His-OH]
Modification Efficiency % (LimF [1]): 34.9 ± 0.7%

Ac-AH-NH2 [Ac—AH—NH2]
Modification Efficiency % (LimF [1]): >99%

DHis
prenylation by LimF in FIT-LimF system (LimF [2]; 100 μM LimF, 25° C., LC-MS): favorable substrates

tecyclo [y I T N I T Y D P C] (ITNITYDPC; not fully specified; cyclized with D-Tyr)
Modification Efficiency % (Tyr prenylation) (LimF [2]): 21%

tecyclo [y I T N I A Y D P C] (ITNIAYDPC; not fully specified; cyclized with D-Tyr)
Modification Efficiency % (Tyr prenylation) (LimF [2]): 1%

FAEGTFTSDVSSYLEGGAAKEFIAWLVHGR [GLP-1_H7F/K34H]
cAMP production activation ability (GLP1R): activity comparable to that of natural GLP-1

COc1ccc2c3c([nH]c2c1)[C@H](C=C(C)C)N1C(=O)[C@@H]2CCCN2C(=O)[C@]1(O)[C@H]3O [12,13-dihydroxyfumitremorgin C]
Kcat (FtmPT2): 0.03 s⁻¹
Km (FtmPT2): 96 µM

cyclo[INPYLYP] (head-to-tail cyclized)
Kcat (PagF): 0.123 s⁻¹
Km (PagF): 0.22 µM

CCC(C)C1NC(=O)C(CC(N)=O)NC(=O)C(C(C)O)NC(=O)C(C(C)CC)NC(=O)C2CCCN2C(=O)C(CC(=O)O)NC(=O)C(Cc2ccc(O)cc2)NC(=O)C(Cc2ccccc2)NC1=O (centres unmarked) [bcLimE3] (cyclo(DPITNIFY); configuration not given here)
geranylation by LimF (LC-MS) (LimF [3]): not subjected to geranylation

O=C(N[C@@H](Cc1cnc[nH]1)C(=O)O)OCC1c2ccccc2-c2ccccc21 [Fmoc-His, Fmoc-His-OH]
Modification Efficiency % (LimF [1]): 15.2 ± 0.8%

cyclo[TSQIWGSPVP] (head-to-tail cyclized)
Kcat (AcyF): 0.158 s⁻¹
Km (AcyF): 3320 µM

OCc1ccc(O)cc1 [4-hydroxy-benzenemethanol]
Kcat (Vib-PT): 0.000783 s⁻¹
Km (Vib-PT): 2050 µM

cyclo[APMPPYP] (head-to-tail cyclized)
Kcat (LynF): 0.00367 s⁻¹
Km (LynF): 4200 µM

CCC(C)C1NC(=O)C(CCC(=O)O)NC(=O)C(CCC(=O)O)NC(=O)C(Cc2c[nH]cn2)NC(=O)C2CCCN2C(=O)C(Cc2ccc(O)cc2)NC(=O)C(CCCNC(=N)N)NC(=O)C2CCCN2C1=O (centres unmarked) [bcLimE2] (cyclo(EEIPRYPH); configuration not given here)
geranylation by LimF (LC-MS) (LimF [3]): quantitatively converted
farnesylation by LimF (LimF [3]; farnesyl pyrophosphate instead of GPP as prenyl group donor, otherwise as geranylation test): trace amount
Kcat (LimF [4]): 0.23 ± 0.01 s⁻¹
Km (LimF [4]): 313 µM and 310 µM
Kcat (LimF [4]; listed as cyclo[RYPHEEIP]): 0.23 s⁻¹

Reference: patent US20250320471A1, “Method for Producing Compounds, Method for Producing Compound Library, Compound Library, and Screening Method” (The University of Tokyo, priority 2021, published 2025)
